Assay [1] addresses T1, Tyrosine-protein phosphatase non-receptor type 2 (Homo sapiens, UniProt P17706).
T1 sequence (P17706 whole entry): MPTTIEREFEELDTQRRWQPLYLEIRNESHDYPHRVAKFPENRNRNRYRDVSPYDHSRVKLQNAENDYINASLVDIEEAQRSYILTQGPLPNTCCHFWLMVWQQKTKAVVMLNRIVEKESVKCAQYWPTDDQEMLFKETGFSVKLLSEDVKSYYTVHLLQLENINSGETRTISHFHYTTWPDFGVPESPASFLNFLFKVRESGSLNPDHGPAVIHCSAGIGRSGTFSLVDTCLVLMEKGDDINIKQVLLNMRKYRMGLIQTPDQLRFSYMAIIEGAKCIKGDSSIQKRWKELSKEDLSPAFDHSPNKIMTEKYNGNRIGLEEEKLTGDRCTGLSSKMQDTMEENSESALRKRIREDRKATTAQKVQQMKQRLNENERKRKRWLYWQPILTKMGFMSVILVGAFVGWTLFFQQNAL
Put plainly: Inhibition of TCPTP.

Assay [2] concerns the target T2, Low molecular weight phosphotyrosine protein phosphatase (Homo sapiens, UniProt P24666).
T2 sequence (P24666 whole entry): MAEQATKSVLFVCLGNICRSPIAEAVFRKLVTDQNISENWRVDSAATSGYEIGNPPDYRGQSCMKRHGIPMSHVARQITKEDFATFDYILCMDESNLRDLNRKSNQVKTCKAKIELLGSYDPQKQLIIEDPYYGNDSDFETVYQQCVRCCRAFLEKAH
Put plainly: Inhibition of HCPTPA.

Assay [3] addresses Tyrosine-protein phosphatase non-receptor type 6 (Homo sapiens, UniProt P29350). Nature of the assay: Inhibition of SHP1.
For assay [4], the target named is T3, Tyrosine-protein phosphatase non-receptor type 11 (Homo sapiens, UniProt Q06124).
T3 sequence (Q06124 whole entry): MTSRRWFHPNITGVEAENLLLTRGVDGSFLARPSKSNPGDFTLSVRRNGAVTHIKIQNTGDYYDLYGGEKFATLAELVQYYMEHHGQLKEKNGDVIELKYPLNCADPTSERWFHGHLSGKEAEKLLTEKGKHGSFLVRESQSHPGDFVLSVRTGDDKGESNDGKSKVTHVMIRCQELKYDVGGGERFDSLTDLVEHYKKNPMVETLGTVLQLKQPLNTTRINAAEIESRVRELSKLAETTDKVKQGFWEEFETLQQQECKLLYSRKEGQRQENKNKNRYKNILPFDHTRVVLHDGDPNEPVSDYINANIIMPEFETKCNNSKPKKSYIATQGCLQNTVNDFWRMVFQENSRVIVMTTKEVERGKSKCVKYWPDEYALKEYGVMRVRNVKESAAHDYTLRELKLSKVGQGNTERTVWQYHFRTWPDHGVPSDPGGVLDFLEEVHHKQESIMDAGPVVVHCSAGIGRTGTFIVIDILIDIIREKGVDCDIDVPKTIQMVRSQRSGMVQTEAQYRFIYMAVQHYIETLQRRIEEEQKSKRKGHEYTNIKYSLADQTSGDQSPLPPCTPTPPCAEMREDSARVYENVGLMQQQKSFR
Put plainly: Inhibition of SHP2.

In assay [5] the target is Receptor-type tyrosine-protein phosphatase mu (Homo sapiens, UniProt P28827). Nature of the assay: Inhibition of HPTP mu.
Sequence of Receptor-type tyrosine-protein phosphatase mu (P28827 whole entry): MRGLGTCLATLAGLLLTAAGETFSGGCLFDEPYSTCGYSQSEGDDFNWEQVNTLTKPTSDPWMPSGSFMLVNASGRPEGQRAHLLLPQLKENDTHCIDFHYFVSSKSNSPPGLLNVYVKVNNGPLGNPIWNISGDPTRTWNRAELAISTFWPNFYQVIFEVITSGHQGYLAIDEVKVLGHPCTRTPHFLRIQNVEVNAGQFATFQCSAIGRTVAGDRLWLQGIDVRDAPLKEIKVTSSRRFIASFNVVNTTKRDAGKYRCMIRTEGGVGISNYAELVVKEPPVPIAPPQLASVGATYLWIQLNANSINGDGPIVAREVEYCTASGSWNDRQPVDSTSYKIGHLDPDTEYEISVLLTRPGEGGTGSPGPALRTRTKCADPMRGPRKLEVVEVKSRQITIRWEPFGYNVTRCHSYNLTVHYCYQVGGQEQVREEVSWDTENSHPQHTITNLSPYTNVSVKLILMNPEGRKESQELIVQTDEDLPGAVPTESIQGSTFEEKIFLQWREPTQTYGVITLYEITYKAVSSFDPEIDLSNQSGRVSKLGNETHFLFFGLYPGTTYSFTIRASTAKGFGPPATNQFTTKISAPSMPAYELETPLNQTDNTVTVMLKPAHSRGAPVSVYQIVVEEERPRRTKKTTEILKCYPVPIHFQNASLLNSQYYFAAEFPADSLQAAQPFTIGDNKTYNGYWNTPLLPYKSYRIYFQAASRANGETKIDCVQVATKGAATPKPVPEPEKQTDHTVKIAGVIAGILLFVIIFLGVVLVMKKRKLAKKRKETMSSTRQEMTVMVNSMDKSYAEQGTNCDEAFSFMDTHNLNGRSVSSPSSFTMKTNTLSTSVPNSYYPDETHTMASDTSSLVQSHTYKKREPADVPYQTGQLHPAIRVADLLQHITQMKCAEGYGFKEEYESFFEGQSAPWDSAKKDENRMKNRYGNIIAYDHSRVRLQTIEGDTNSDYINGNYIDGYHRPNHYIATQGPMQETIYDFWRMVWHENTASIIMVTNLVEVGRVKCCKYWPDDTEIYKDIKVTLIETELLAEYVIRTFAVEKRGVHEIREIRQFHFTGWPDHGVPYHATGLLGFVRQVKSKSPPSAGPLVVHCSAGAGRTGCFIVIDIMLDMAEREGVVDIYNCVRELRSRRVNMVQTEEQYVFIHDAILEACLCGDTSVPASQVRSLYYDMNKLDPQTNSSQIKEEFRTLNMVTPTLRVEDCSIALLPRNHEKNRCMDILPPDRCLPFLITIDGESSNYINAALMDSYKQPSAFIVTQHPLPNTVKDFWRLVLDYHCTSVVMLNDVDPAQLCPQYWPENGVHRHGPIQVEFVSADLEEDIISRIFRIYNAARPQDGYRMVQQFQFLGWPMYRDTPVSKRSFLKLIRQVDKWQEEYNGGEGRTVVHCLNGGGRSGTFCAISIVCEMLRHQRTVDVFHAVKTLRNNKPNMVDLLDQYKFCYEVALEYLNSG
In assay [6] the target is T4, Receptor-type tyrosine-protein phosphatase eta (Homo sapiens, UniProt Q12913).
T4 sequence (Q12913 whole entry): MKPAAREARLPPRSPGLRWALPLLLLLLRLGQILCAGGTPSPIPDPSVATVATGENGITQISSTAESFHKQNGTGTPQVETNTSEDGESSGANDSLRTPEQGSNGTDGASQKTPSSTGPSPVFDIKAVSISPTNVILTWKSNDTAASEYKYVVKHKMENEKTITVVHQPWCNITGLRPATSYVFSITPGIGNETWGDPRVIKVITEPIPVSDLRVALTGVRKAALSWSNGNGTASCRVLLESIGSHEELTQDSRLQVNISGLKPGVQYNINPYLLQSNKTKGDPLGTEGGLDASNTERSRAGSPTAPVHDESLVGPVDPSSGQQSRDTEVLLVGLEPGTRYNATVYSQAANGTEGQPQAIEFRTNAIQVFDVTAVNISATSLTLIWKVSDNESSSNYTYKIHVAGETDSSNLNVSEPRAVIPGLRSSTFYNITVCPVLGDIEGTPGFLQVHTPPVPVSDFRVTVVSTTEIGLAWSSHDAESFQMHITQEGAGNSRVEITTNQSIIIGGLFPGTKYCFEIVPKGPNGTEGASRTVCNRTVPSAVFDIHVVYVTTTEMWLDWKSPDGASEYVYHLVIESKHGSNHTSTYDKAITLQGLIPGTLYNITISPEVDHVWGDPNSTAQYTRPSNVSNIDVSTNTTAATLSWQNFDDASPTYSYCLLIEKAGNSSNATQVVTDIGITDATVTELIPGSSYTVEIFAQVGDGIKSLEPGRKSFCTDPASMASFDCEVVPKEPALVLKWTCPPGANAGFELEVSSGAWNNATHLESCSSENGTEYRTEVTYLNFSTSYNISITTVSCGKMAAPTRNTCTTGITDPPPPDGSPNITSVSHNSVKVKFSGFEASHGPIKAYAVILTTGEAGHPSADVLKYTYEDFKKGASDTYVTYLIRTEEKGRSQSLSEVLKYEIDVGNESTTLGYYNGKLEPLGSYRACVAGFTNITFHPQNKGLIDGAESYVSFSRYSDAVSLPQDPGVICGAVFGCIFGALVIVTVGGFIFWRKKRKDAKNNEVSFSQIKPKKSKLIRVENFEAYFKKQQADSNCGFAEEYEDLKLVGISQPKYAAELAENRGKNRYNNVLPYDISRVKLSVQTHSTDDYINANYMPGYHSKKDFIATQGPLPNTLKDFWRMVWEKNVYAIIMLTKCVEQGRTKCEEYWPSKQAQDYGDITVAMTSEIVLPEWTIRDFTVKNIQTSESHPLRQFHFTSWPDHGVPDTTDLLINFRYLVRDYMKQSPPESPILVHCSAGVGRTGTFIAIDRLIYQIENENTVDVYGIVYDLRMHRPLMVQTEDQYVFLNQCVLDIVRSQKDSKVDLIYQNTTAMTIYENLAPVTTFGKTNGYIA
Nature of the assay: Inhibition of HPTP eta.

Assay [7] deals with Receptor-type tyrosine-protein phosphatase F (Homo sapiens, UniProt P10586). Put plainly: Inhibition of LAR.
Sequence of Receptor-type tyrosine-protein phosphatase F (P10586 whole entry): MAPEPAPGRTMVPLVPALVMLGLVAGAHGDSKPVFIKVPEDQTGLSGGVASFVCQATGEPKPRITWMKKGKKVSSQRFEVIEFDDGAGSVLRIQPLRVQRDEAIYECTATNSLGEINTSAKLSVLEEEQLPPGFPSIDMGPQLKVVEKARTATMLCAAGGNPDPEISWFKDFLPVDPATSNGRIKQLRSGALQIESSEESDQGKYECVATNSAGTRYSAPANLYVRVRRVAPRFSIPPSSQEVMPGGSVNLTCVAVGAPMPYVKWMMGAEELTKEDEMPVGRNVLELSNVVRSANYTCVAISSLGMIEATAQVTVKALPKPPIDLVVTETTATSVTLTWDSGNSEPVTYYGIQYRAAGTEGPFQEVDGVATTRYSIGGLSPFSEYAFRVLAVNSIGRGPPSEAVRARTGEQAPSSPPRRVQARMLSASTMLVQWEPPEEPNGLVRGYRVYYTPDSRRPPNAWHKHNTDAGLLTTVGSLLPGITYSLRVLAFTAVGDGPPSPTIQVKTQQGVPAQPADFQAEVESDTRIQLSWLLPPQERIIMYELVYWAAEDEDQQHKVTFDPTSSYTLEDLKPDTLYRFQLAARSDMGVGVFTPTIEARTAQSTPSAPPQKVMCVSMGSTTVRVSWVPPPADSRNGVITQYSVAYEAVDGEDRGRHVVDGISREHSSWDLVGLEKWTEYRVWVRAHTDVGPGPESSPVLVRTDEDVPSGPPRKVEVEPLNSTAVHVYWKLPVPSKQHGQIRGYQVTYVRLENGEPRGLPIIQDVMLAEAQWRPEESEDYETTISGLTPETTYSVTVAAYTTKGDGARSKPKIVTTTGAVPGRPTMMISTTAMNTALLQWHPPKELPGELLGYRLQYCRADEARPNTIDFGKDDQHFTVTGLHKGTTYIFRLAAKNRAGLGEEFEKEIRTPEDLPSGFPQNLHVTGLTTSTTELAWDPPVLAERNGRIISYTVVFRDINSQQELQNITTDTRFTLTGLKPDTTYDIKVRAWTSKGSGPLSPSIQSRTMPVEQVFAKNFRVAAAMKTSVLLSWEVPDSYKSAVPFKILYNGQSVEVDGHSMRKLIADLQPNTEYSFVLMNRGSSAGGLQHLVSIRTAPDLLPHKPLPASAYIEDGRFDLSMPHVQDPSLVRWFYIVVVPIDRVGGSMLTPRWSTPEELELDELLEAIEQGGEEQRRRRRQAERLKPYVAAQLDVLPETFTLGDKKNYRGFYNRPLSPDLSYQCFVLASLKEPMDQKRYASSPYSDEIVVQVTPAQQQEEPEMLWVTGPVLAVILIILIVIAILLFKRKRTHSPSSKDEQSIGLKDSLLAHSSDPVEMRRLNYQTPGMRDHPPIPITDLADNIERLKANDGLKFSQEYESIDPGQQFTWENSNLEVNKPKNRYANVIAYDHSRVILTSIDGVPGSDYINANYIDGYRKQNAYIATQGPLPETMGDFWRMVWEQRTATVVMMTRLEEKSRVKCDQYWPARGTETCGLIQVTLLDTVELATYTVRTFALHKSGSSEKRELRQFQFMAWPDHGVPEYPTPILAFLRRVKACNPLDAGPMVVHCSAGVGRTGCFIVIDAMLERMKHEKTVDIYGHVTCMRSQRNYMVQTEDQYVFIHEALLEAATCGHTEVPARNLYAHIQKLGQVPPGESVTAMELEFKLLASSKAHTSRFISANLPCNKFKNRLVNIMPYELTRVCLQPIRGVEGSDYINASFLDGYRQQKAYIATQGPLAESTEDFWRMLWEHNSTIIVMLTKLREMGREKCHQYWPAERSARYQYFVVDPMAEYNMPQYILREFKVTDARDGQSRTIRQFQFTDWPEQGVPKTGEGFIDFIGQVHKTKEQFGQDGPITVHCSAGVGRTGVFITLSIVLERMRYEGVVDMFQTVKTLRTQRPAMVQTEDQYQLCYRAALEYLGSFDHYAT
A short description of assay [8]: Inhibition of STP1.
For assay [9], the target named is Dual specificity protein phosphatase 3 (Homo sapiens, UniProt P51452). Put plainly: Inhibition of VHR.
Sequence of Dual specificity protein phosphatase 3 (P51452 whole entry): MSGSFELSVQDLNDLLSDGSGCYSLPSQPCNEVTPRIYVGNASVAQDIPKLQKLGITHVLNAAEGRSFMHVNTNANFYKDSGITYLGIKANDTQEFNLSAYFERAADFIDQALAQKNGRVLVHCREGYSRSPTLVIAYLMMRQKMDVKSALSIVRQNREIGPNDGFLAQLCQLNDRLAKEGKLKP
For assay [10], the target named is T1, Tyrosine-protein phosphatase non-receptor type 2. Put plainly: Inhibition of TC-PTP38.
For assay [11], the target named is Receptor-type tyrosine-protein phosphatase epsilon (Homo sapiens, UniProt P23469). Nature of the assay: Inhibition of HPTP epsilon.
Sequence of Receptor-type tyrosine-protein phosphatase epsilon (P23469 whole entry): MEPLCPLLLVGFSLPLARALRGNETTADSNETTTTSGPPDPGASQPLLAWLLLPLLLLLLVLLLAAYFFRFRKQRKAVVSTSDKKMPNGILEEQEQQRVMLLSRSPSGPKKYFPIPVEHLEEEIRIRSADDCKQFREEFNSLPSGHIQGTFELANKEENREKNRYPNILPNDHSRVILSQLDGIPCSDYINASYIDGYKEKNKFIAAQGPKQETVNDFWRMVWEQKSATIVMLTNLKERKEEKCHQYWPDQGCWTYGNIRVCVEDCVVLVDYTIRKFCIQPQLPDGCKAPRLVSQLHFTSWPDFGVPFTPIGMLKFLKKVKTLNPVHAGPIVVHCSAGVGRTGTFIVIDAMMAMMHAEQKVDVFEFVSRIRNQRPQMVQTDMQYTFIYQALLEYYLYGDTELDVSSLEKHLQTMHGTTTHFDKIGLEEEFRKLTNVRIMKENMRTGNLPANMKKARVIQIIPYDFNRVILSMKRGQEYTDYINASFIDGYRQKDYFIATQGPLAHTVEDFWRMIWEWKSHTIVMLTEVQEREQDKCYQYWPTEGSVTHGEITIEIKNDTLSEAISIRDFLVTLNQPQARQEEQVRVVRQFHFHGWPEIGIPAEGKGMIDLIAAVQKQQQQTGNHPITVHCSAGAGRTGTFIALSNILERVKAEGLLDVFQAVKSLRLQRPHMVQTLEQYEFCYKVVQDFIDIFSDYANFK

Sequence of Tyrosine-protein phosphatase non-receptor type 6 (P29350 whole entry): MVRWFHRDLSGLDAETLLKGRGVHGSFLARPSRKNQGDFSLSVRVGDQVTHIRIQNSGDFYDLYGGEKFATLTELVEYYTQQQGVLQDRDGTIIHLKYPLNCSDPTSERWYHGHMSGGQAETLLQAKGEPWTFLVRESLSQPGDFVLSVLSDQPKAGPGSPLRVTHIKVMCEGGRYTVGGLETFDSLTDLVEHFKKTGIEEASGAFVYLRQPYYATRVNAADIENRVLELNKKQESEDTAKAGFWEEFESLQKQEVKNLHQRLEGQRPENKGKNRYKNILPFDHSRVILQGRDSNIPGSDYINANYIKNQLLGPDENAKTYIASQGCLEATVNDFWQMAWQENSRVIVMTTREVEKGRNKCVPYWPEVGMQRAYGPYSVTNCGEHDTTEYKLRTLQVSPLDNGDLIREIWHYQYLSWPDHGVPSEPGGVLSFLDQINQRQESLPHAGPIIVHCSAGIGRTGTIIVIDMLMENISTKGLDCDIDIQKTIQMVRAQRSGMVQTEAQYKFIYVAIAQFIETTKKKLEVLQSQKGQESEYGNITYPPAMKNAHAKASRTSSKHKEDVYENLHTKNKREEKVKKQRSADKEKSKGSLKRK

Broadly, the IC50 is the midpoint of a concentration-inhibition curve. A high value points to weaker potency in that assay. Consider `CNC(=O)[C@@H]1Cc2ccc(NS(=O)(=O)O)cc2CN1C(=O)CCc1cccc(NS(=O)(=O)O)c1`, for which the IC50 in assay [1] was 9.4 µM; in assay [2], 3.1 µM; in assay [3], 203 µM; in assay [4], above 500 µM; in assay [5] it was above 500 µM; in assay [6], 150 µM. The IC50 in assay [7] is above 500 µM; in assay [8] it was 8.1 µM; in assay [9], 4 µM; in [10] it was 9.9 µM; in assay [11] it was above 500 µM.
